# Data taken from patent US9364388B2, “Methods of treatment with nitric oxide at pressures greater than one atmosphere” (Barry University, priority 2012, dated 2016).
# Assays:
# [1] = Percutaneous absorption of nitric oxide, in vitro Franz human skin finite dose model; type: in vitro ADME; details: delivered at a pressure of 1.2 atm as compared with normal pressure; Franz diffusion cell, human skin (FIG. 10)
# Procedure: The percutaneous absorption of nitric oxide is evaluated using a Franz human skin finite dose model. The in vitro Franz human skin finite dose model has proven to be a valuable tool for the study of percutaneous absorption and the determination of the pharmacokinetics of topically applied drugs. The model uses human ex vivo cadaver or surgical skin mounted in a specially designed diffusion chamber allowing the skin to be maintained at a temperature and humidity that match typical in vivo conditions. A finite dose of a formulation is applied to the outer surface of the skin and drug absorption is measured by monitoring its rate of appearance in the reservoir solution bathing the inner surface of the skin. In this study, the applied dose is a controlled continuous exposure to a gas. Data defining total absorption, rate of absorption, as well as skin content can be accurately determined in this model. […]
# A single center, open label study of nitric oxide formulations is performed. […] The rate and extent of penetration of nitric oxide, at normal pressure and at greater than 1 atm of pressure (e.g., 1.2×, 1.5×, 1.8×, 2.0×, 2.2×, etc.) for continuous exposure durations of 30 and 60 minutes is determined for the amount penetrating through the skin and into the different layers of the skin using a Franz Diffusion Cell. […]
# [2] = mixture of 1000 ppm nitric oxide and 21% oxygen; cited from earlier work
smiles,measurement,setting,value
"[N]=O [NO, nitric oxide]",NO penetration in the epidermis and stratum corneum,[1],increased
same,time for half of the nitric oxide to react to become nitric dioxide,[2],about 3.5 minutes
